Data reported in the NIST ThermoML archive (doi:10.1016/j.jct.2019.02.011).

Assay: xn = mol fraction of the nth substance listed
Conditions: Liquid, Vibrating tube method

COC(=O)OC [dimethyl carbonate] + CCCO
Conditions | mass density [kg/m3]
288.15 K, 40000 kPa, x1 = 0.4509 | 961.56
288.15 K, 40000 kPa, x1 = 0.5002 | 975.08
288.15 K, 40000 kPa, x1 = 0.5498 | 988.61
288.15 K, 40000 kPa, x1 = 0.5996 | 1002.11
288.15 K, 40000 kPa, x1 = 0.6499 | 1015.62
288.15 K, 40000 kPa, x1 = 0.7006 | 1029.15
288.15 K, 40000 kPa, x1 = 0.7471 | 1041.39
288.15 K, 40000 kPa, x1 = 0.7989 | 1055.05
288.15 K, 40000 kPa, x1 = 0.8491 | 1068.31
288.15 K, 40000 kPa, x1 = 0.8993 | 1081.55
288.15 K, 40000 kPa, x1 = 0.9249 | 1088.19
288.15 K, 40000 kPa, x1 = 0.9489 | 1094.34
288.15 K, 40000 kPa, x1 = 0.9743 | 1100.84
288.15 K, 40000 kPa, x1 = 1 | 1107.4
293.15 K, 100 kPa, x1 = 0.0273 | 811.13
293.15 K, 100 kPa, x1 = 0.0506 | 817.67
293.15 K, 100 kPa, x1 = 0.0755 | 824.75
293.15 K, 100 kPa, x1 = 0.1007 | 831.84
293.15 K, 100 kPa, x1 = 0.1495 | 845.58
293.15 K, 100 kPa, x1 = 0.2003 | 859.73
293.15 K, 100 kPa, x1 = 0.2529 | 874.29
293.15 K, 100 kPa, x1 = 0.2993 | 887.05
293.15 K, 100 kPa, x1 = 0.3497 | 900.71
293.15 K, 100 kPa, x1 = 0.401 | 914.47
293.15 K, 100 kPa, x1 = 0.4509 | 927.86
293.15 K, 100 kPa, x1 = 0.5002 | 940.97
293.15 K, 100 kPa, x1 = 0.5498 | 954.1
293.15 K, 100 kPa, x1 = 0.5996 | 967.18
293.15 K, 100 kPa, x1 = 0.6499 | 980.33
293.15 K, 100 kPa, x1 = 0.7006 | 993.49
293.15 K, 100 kPa, x1 = 0.7471 | 1005.43
293.15 K, 100 kPa, x1 = 0.7989 | 1018.72
293.15 K, 100 kPa, x1 = 0.8491 | 1031.57
293.15 K, 100 kPa, x1 = 0.8993 | 1044.49
293.15 K, 100 kPa, x1 = 0.9249 | 1051
293.15 K, 100 kPa, x1 = 0.9489 | 1057.07
293.15 K, 100 kPa, x1 = 0.9743 | 1063.49
293.15 K, 100 kPa, x1 = 1 | 1070.06
293.15 K, 5000 kPa, x1 = 0.0273 | 814.85
293.15 K, 5000 kPa, x1 = 0.0506 | 821.44
293.15 K, 5000 kPa, x1 = 0.0755 | 828.52
293.15 K, 5000 kPa, x1 = 0.1007 | 835.66
293.15 K, 5000 kPa, x1 = 0.1495 | 849.45
293.15 K, 5000 kPa, x1 = 0.2003 | 863.66
293.15 K, 5000 kPa, x1 = 0.2529 | 878.27
293.15 K, 5000 kPa, x1 = 0.2993 | 891.08
293.15 K, 5000 kPa, x1 = 0.3497 | 904.78
293.15 K, 5000 kPa, x1 = 0.401 | 918.61
293.15 K, 5000 kPa, x1 = 0.4509 | 932.05
293.15 K, 5000 kPa, x1 = 0.5002 | 945.21
293.15 K, 5000 kPa, x1 = 0.5498 | 958.38
293.15 K, 5000 kPa, x1 = 0.5996 | 971.52
293.15 K, 5000 kPa, x1 = 0.6499 | 984.67
293.15 K, 5000 kPa, x1 = 0.7006 | 997.89
293.15 K, 5000 kPa, x1 = 0.7471 | 1009.83
293.15 K, 5000 kPa, x1 = 0.7989 | 1023.17
293.15 K, 5000 kPa, x1 = 0.8491 | 1036.07
293.15 K, 5000 kPa, x1 = 0.8993 | 1049.04
293.15 K, 5000 kPa, x1 = 0.9249 | 1055.55
293.15 K, 5000 kPa, x1 = 0.9489 | 1061.62
293.15 K, 5000 kPa, x1 = 0.9743 | 1068.04
293.15 K, 5000 kPa, x1 = 1 | 1074.62
293.15 K, 10000 kPa, x1 = 0.0273 | 818.47
293.15 K, 10000 kPa, x1 = 0.0506 | 825.06
293.15 K, 10000 kPa, x1 = 0.0755 | 832.19
293.15 K, 10000 kPa, x1 = 0.1007 | 839.38
293.15 K, 10000 kPa, x1 = 0.1495 | 853.18
293.15 K, 10000 kPa, x1 = 0.2003 | 867.43
